Data from patent publication US20060030608A1, “Anti aromatase compounds pharmaceutical compositions and uses thereof” (Boehringer Ingelheim Pharmaceuticals, Inc., priority 2004, published 2006).

target: T1, recombinant human aromatase (CYP19) (Homo sapiens, UniProt P11511); assay: aromatase (CYP19) inhibition assay, fluorometric substrate dibenzylfluorescein (DBF); format: biochemical; details: recombinant human aromatase (baculovirus/insect cell expressed), test compounds 2×10^−5 to 10^−9 M, 37° C. for 30 minutes
T1 construct: purchased GENTEST 456260; host or cells: baculovirus/insect cells
T1 sequence (P11511 1-503): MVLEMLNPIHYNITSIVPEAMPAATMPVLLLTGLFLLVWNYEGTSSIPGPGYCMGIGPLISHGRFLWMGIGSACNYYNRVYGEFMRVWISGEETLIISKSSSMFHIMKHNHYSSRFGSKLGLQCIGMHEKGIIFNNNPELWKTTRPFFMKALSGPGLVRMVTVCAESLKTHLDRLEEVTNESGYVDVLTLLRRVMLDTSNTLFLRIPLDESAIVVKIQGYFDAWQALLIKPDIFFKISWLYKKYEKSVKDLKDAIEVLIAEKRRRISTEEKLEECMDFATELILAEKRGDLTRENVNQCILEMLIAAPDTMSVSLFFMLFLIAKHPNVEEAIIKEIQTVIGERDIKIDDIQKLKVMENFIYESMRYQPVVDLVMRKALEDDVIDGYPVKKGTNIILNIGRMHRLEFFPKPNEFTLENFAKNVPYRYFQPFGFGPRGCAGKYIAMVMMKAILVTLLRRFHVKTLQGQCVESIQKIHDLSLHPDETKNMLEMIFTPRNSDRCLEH
Experimental: Compounds of the invention were evaluated for inhibiting aromatase enzyme using the following aromatase (CYP19) inhibition assay which detects aromatase inhibitors utilizing recombinant human aromatase (baculovirus/insect cell expressed) and the fluorometric substrate dibenzylfluorescein (DBF). Aromatase will metabolize DBF to fluorescein which will give the fluorescent signal. The assay is conducted in 96-well black, Falcon plate (BD Biosciences, Cat. No. 353241) in the total volume of 100 μL per well. 40 μL of the Cofactor/Dilution buffer (1) is added to the plate followed by 10 μL of serially diluted test compounds in duplicates for final concentration of 2×10^−5 to 10^−9 M, or 10 μL of phosphate buffer for positive and background control wells. After 10 minutes of preincubation at 37° C., the reaction is initiated by adding 50 μL of prewarmed Enzyme/Substrate Mix (2) to the test compound wells, and positive control wells (maximum activity of CYP19, which represents 100%). The plate is incubated at 37° C. for 30 minutes. To stop the reaction, 37.5 μL of 2 N NaOH is added to all wells. For background controls, 50 μL of Enzyme/Substrate Mix (2) are added into background control wells. The plate is left at 37° C. incubator for 2 hours to develop adequate signal to background ratio. Fluorescence per well is measured in the fluorescent plate reader. The metabolite concentration is measured using excitation wavelength of 485 nm and emission wavelength of 538 nm. Inhibition of aromatase by test compounds is expressed in percentage relative to positive controls. IC50 values for the test compounds are derived from non-liner curve fitting. • (1) Cofactor/Dilution buffer: 50 mM phosphate buffer, pH=7.4; 1× NADPH regenerating system A (20× stock, GENTEST, Cat. No. 451220); 1× NAPDH regenerating system B (100× stock, GENTEST, Cat. No. 451200) and 0.2 mg/mL control protein (Insect Cell Control Supersomes, GENTEST, Cat. No. 456200) • (2) Enzyme/Substrate Mix: 50 mM phosphate buffer, pH=7.4, 0.02 nmole/mL human aromatase protein (Human CYP19+P450 Reductase Supersomes, GENTEST, Cat. No. 456260); 0.4 μM dibenzylfluorescein (DBF, GENTEST, Cat. No. 451750, prepared at 2 mM concentration in acetonitrile); 0.5 mg/mL control protein (Insect Cell Control Supersomes, GENTEST, Cat. No. 456200).

| aromatase inhibition | Structure (SMILES) |
| --- | --- |
| showed aromatase inhibition | CC(C)(CC(O)(Cc1cc2cnccc2[nH]1)C(F)(F)F)c1cccc(F)c1 (stereo not drawn) [1,1,1-Trifluoro-4-(3-fluorophenyl)-4-methyl-2-(1H-pyrrolo[3,2-c]pyridin-2-ylmethyl)pentan-2-ol] |
| showed aromatase inhibition | COc1cc(F)ccc1C(C)(C)CC(O)(Cc1cc2ccncc2[nH]1)C(F)(F)F (stereo not drawn) [1,1,1-Trifluoro-4-(4-fluoro-2-methoxyphenyl)-4-methyl-2-(1H-pyrrolo[2,3-c]pyridin-2-ylmethyl)pentan-2-ol] |
| showed aromatase inhibition | CC(C)(CC(O)(Cc1cc2cnccc2[nH]1)C(F)(F)F)c1ccc(F)cc1 (stereo not drawn) [1,1,1-Trifluoro-4-(4-fluorophenyl)-4-methyl-2-(1H-pyrrolo [3,2-c]pyridin-2-ylmethyl)pentan-2-ol] |
| showed aromatase inhibition | COc1ccc(F)cc1C(C)(C)CC(O)(Cc1cc2ccncc2[nH]1)C(F)(F)F (stereo not drawn) [1,1,1-Trifluoro-4-(5-fluoro-2-methoxyphenyl)-4-methyl-2-(1H-pyrrolo[2,3-c]pyridin-2-ylmethyl)pentan-2-ol] |
| showed aromatase inhibition | Cc1ccc(F)cc1C(C)(C)CC(O)(Cc1cc2ncncc2[nH]1)C(F)(F)F (stereo not drawn) [1,1,1-Trifluoro-4-(5-fluoro-2-methylphenyl)-4-methyl-2-(5H-pyrrolo[3,2-d]pyrimidin-6-ylmethyl)pentan-2-ol] |
| showed aromatase inhibition | COc1ccc(F)cc1C(C)(C)CC(O)(Cc1cc2cnccc2[nH]1)C(F)F (stereo not drawn) [1,1-Difluoro-4-(5-fluoro-2-methoxyphenyl)-4-methyl-2-(1H-pyrrolo[3,2-c]pyridin-2-ylmethyl)pentan-2-ol] |
| showed aromatase inhibition | COc1ccc(F)cc1C(C)(C)CC(O)(Cc1cc2ccncc2[nH]1)C1CC1 (stereo not drawn) [2-Cyclopropyl-4-(5-fluoro-2-methoxyphenyl)-4-methyl-1-(1H-pyrrolo[2,3-c]pyridin-2-yl)pentan-2-ol] |
| showed aromatase inhibition | Cc1ccc(F)cc1C(C)(C)CC(O)(Cc1cc2ccncc2[nH]1)C1CC1 (stereo not drawn) [2-Cyclopropyl-4-(5-fluoro-2-methylphenyl)-4-methyl-1-(1H-pyrrolo[2,3-c]pyridin-2-yl)pentan-2-ol] |
| showed aromatase inhibition | Cc1ccc(F)cc1C(C)(C)CC(O)(Cc1cc2cnccc2[nH]1)C1CC1 (stereo not drawn) [2-Cyclopropyl-4-(5-fluoro-2-methylphenyl)-4-methyl-1-(1H-pyrrolo[3,2-c]pyridin-2-yl)pentan-2-ol] |
| showed aromatase inhibition | CC(C)(CC(O)(Cc1cc2ccncc2[nH]1)C1CC1)c1cc(Cl)cc2c1OCC2 (stereo not drawn) [4-(5-Chloro-2,3-dihydrobenzofuran-7-yl)-2-cyclopropyl-4-methyl-1-(1H-pyrrolo[2,3-c]pyridin-2-yl)pentan-2-ol] |
| showed aromatase inhibition | CC(C)(CC(O)(Cc1cc2cnccc2[nH]1)C1CC1)c1cc(Cl)cc2c1OCC2 (stereo not drawn) [4-(5-Chloro-2,3-dihydrobenzofuran-7-yl)-2-cyclopropyl-4-methyl-1-(1H-pyrrolo[3,2-c]pyridin-2-yl)pentan-2-ol] |
| showed aromatase inhibition | COc1ccc(F)cc1C(C)(C)CC(O)(Cc1cc2ccncc2[nH]1)C(C)(C)C (stereo not drawn) [5-(5-Fluoro-2-methoxyphenyl)-2,2,5-trimethyl-3-(1H-pyrrolo[2,3-c]pyridin-2-ylmethyl)hexan-3-ol] |
| showed aromatase inhibition | COc1ccc(F)cc1C(C)(C)CC(O)(Cc1cc2cnccc2[nH]1)C(C)(C)C (stereo not drawn) [5-(5-Fluoro-2-methoxyphenyl)-2,2,5-trimethyl-3-(1H-pyrrolo[3,2-c]pyridin-2-ylmethyl)hexan-3-ol] |
| showed aromatase inhibition | COc1ccc(F)cc1C(C)(C)CC(O)(Cc1cc2ccncc2[nH]1)C(C)C (stereo not drawn) [5-(5-Fluoro-2-methoxyphenyl)-2,5-dimethyl-3-(1H-pyrrolo[2,3-c]pyridin-2-ylmethyl)hexan-3-ol] |
| showed aromatase inhibition | COc1ccc(F)cc1C(C)(C)CC(O)(Cc1cc2cnccc2[nH]1)C(C)C (stereo not drawn) [5-(5-Fluoro-2-methoxyphenyl)-2,5-dimethyl-3-(1H-pyrrolo[3,2-c]pyridin-2-ylmethyl)hexan-3-ol] |

Continued, compound first:

| Structure (SMILES) | aromatase inhibition |
| --- | --- |
| CC(C)(CC(O)(Cc1cc2ccncc2[nH]1)C(F)(F)F)c1cccc(F)c1 (stereo not drawn) [1,1,1-Trifluoro-4-(3-fluorophenyl)-4-methyl-2-(1H-pyrrolo[2,3-c]pyridin-2-ylmethyl)pentan-2-ol] | showed aromatase inhibition |
| CC(C)(CC(O)(Cc1cc2ccncc2[nH]1)C(F)(F)F)c1ccc(F)cc1 (stereo not drawn) [1,1,1-Trifluoro-4-(4-fluorophenyl)-4-methyl-2-(1H-pyrrolo[2,3-c]pyridin-2-ylmethyl)pentan-2-ol] | showed aromatase inhibition |
| COc1ccc(F)cc1C(C)(C)CC(O)(Cc1cc2ncncc2[nH]1)C(F)(F)F (stereo not drawn) [1,1,1-Trifluoro-4-(5-fluoro-2-methoxyphenyl)-4-methyl-2-(5H-pyrrolo[3,2-d]pyrimidin-6-ylmethyl)pentan-2-ol] | showed aromatase inhibition |
| COc1ccc(F)cc1C(C)(C)CC(O)(Cc1cc2cncnc2[nH]1)C(F)(F)F (stereo not drawn) [1,1,1-Trifluoro-4-(5-fluoro-2-methoxyphenyl)-4-methyl-2-(7H-pyrrolo[2,3-d]pyrimidin-6-ylmethyl)pentan-2-ol] | showed aromatase inhibition |
| COc1ccc(F)cc1C(C)(C)CC(O)(Cc1cc2ccncc2s1)C(F)(F)F (stereo not drawn) [1,1,1-Trifluoro-4-(5-fluoro-2-methoxyphenyl)-4-methyl-2-thieno[2,3-c]pyridin-2-ylmethylpentan-2-ol] | showed aromatase inhibition |
| Cc1cc2c(c(C(C)(C)CC(O)(Cc3cc4ccncc4[nH]3)C(F)(F)F)c1)OCC2 (stereo not drawn) [1,1,1-Trifluoro-4-methyl-4-(5-methyl-2,3-dihydrobenzofuran-7-yl)-2-(1H-pyrrolo[2,3-c]pyridin-2-ylmethyl)pentan-2-ol] | showed aromatase inhibition |
| CC(C)(CC(O)(Cc1cc2cnccc2[nH]1)C(F)(F)F)c1ccccc1 (stereo not drawn) [1,1,1-Trifluoro-4-methyl-4-phenyl-2-(1H-pyrrolo [3,2-c]pyridin-2-ylmethyl)pentan-2-ol] | showed aromatase inhibition |
| CC(C)(CC(O)(Cc1cc2ccncc2[nH]1)C(F)(F)F)c1ccccc1 (stereo not drawn) [1,1,1-Trifluoro-4-methyl-4-phenyl-2-(1H-pyrrolo[2,3-c]pyridin-2-ylmethyl)pentan-2-ol] | showed aromatase inhibition |
| COc1ccc(F)cc1C(C)(C)CC(O)(Cc1[nH]c2ccncc2c1CN(C)C)C(F)(F)F (stereo not drawn) [2-(3-Dimethylaminomethyl-1H-pyrrolo[3,2-c]pyridin-2-ylmethyl)-1,1,1-trifluoro-4-(5-fluoro-2-methoxyphenyl)-4-methylpentan-2-ol] | showed aromatase inhibition |
| CC(C)(CC(O)(Cc1cc2ccncc2[nH]1)C(F)(F)F)c1cccc2c1OCC2 (stereo not drawn) [4-(2,3-Dihydrobenzofuran-7-yl)-1,1,1-trifluoro-4-methyl-2-(1H-pyrrolo[2,3-c]pyridin-2-ylmethyl)pentan-2-ol] | showed aromatase inhibition |
| CC(C)(CC(O)(Cc1cc2cnccc2[nH]1)C(F)(F)F)c1cccc2c1OCC2 (stereo not drawn) [4-(2,3-Dihydrobenzofuran-7-yl)-1,1,1-trifluoro-4-methyl-2-(1H-pyrrolo[3,2-c]pyridin-2-ylmethyl)pentan-2-ol] | showed aromatase inhibition |
| CC(C)C(O)(Cc1cc2ccncc2[nH]1)CC(C)(C)c1cc(Cl)cc2c1OCC2 (stereo not drawn) [5-(5-Chloro-2,3-dihydrobenzofuran-7-yl)-2,5-dimethyl-3-(1H-pyrrolo[2,3-c]pyridin-2-ylmethyl)hexan-3-ol] | showed aromatase inhibition |
